One series deals with T1, Progesterone Receptor (PR) (Homo sapiens, UniProt P06401).
T1 construct: endogenous in cells; host or cells: T47D human breast mammary carcinoma cells
T1 sequence (P06401 1-933): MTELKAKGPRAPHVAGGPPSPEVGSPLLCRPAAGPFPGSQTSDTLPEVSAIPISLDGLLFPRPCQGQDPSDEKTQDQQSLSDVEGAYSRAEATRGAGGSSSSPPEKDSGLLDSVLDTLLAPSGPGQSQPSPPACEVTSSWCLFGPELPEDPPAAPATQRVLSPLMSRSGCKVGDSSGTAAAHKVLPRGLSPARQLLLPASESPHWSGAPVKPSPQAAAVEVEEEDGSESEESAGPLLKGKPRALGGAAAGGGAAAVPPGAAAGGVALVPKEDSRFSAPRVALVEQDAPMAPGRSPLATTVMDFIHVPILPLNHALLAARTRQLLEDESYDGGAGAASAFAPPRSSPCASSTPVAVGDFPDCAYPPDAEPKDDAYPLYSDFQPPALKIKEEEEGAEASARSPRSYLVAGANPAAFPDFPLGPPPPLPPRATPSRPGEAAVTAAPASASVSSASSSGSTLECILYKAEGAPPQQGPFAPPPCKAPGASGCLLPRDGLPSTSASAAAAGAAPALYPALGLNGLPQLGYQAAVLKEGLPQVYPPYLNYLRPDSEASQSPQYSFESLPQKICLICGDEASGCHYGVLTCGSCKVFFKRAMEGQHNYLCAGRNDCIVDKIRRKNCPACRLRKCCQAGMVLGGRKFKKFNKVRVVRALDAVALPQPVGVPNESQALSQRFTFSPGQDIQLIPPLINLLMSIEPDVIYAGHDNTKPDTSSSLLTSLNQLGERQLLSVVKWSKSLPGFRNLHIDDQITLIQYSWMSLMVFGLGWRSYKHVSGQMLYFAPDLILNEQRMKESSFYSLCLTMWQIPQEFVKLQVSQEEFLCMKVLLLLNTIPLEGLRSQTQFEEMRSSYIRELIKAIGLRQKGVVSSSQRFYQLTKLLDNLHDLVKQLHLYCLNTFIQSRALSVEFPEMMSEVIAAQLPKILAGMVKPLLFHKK
Description: In vitro functional assay for progesterone receptor (PR) antagonism: inhibition of progesterone-induced alkaline phosphatase expression in T47D cells (Screen 1.0). Particulars: antagonist format (5 nM P4), alkaline phosphatase inhibition in T47D human mammary carcinoma cells. It is filed as cell-based. The source says: 1.0 In Vitro Functional Assay for Progesterone Receptor (PR) Antagonism
The assay for PR antagonism takes advantage of the extensively reported modulation of alkaline phosphatase (AP) expression in human breast T47D mammary carcinoma cells {Beck, et al., (1993). The progesterone antagonist RU486 acquires agonist activity upon stimulation of cAMP signalling pathways. Proc. Natl. Acad. Sci., USA, 90, 4441-4445; Fensome, et al. (2002). New progesterone receptor antagonists: 3,3-disubstituted-5-aryloxindoles. Bioorg. Med. Chem. Lett., 12, 3487-3490; Zhang et al., (2002a). 6-Aryl-1,4-dihydro-benzo d 1,3 oxazin-2-ones: a novel class of potent, selective, and orally active nonsteroidal progesterone receptor antagonists. J. Med. Chem., 45, 4379-4382; Zhang et al., (2003). Novel 6-aryl-1,4-dihydrobenzo[d]oxazine-2-thiones as potent, selective, and orally active nonsteroidal progesterone receptor agonists. Bioorganic & Med. Chem. Lett., 13, 1313-1316; Zhang et al., (2002b). Potent nonsteroidal progesterone receptor agonists: synthesis and SAR study of 6-aryl benzoxazines. Bioorganic & Med. Chem. Lett., 12, 787-790; Zhang, et al., (2000). In vitro characterization of trimegestone: a new potent and selective progestin. Steroids 65, 637-643}. […] In the absence of progesterone any agonist activity is also observed as an induction of AP activity. By running the assay in two formats (±progesterone (P4)), compounds behaving as PR antagonists, agonists or partials can be identified.
The materials required to grow T47D cells and perform the progesterone-induced AP assay are outlined in Table 1.
Assay media (agonist format): DMEM without phenol red+5% CS-FCS+2 mM Glutamax. Assay media (antagonist format): DMEM without phenol red+5% CS-FCS+2 mM Glutamax+10 nM P4.
Briefly, T47D cells are grown by propagating in DMEM+10% FBS+2 mM Glutamax at 37° C./5% CO2. At 80-90% confluence, the media is exchanged for phenol red free DMEM+5% CS-FCS (Assay media) and cultured for a further 24 hrs at 37° C./5% CO2. T47D cells are then plated at 2.5×10^4 cells/well in 100 μL assay media in sufficient 96 well plates for the assay, in triplicates of each condition. For example, for a 5-point IC50 curve on one compound, this is equivalent to […]. These plates are then cultured for 24 hrs at 37° C./5% CO2, leaving the outside wells blank by the addition of 200 μL PBS.
A 10 mM stock solution of compounds is prepared in DMSO (stored −20° C. in 10 μL aliquots). A 10 mM DMSO stock of RU486 is used as a standard pure PR antagonist. The compounds under investigation are added to assay medium, or a mixture of 0.05% pluronic acid in PBS, ±10 nM P4 to give a final concentration of 20 μM (i.e. 10 μL of the 10 mM stock to […] assay medium ±10 nM P4). The samples are mixed thoroughly and serial dilutions of compounds from 10 µM to 0.1 nM in a 96 well plate, are prepared as follows:
The outside wells are left blank. Assay medium (225 μL) is added to one half of the plate (−P4), rows 3-8, and to the other half of the plate, assay medium +10 nM P4. To row 2, 250 μL of the top concentration of compound (20 μM±10 nM P4) is added. 25 μL of the […] stock from row 2 is removed and added to the 225 μL of assay medium±10 nM P4 in row 3 and thoroughly mixed. This process is repeated down the plate to row 7 to achieve serial dilutions. The vehicle control is adjusted to contain 0.1% DMSO (i.e. 20 μL to 10 mL assay medium±10 nM P4 to give a concentration of 0.2% DMSO, add 250 μL to row 8).
100 μL of reagent from the dilution plates are transferred into the corresponding wells containing T47D cells assay medium, to give a final concentration of 10 μM to 0.1 nM compound (5 nM P4 antagonist format). The cells were incubated for 20 hrs at 37° C./5% CO2., then media is removed, cells washed with PBS (200 μL) and lysed by placing the cells at −80° C. for 15 min and thawing at room temp. The freeze-thaw lysis is repeated, then PBS (50 μL) is added to each well. […]
The IC50 is the midpoint of a concentration-inhibition curve. Turning to `CS(=O)(=O)Cn1nc(C2CC2)c(Oc2ccc(C#N)c(F)c2)c1C1CC1` [Example 5, 4-(3,5-dicyclopropyl-1-methanesulfonylmethyl-1H-pyrazol-4-yloxy)-2-fluoro-benzonitrile], the 50% inhibitory concentration (IC50) stood at 44 nM.

For the compound `CCc1nn(CS(C)(=O)=O)c(CC)c1Oc1cc(C)c(C#N)c(C)c1` [Example 23, 4-(3,5-diethyl-1-methanesulfonylmethyl-1H-pyrazol-4-yloxy)-2,6-dimethyl-benzonitrile], the IC50 was determined as 6 nM.

Compound `Cc1cc(Oc2c(C3CC3)nn(CS(C)(=O)=O)c2C2CC2)cc(C)c1C#N` [Example 3, 4-(3,5-dicyclopropyl-1-methanesulfonylmethyl-1H-pyrazol-4-yloxy)-2,6-dimethyl-benzonitrile] displayed an IC50 of 8 nM.

`Cc1cc(Oc2c(C3CC3)nn(CS(C)(=O)=O)c2C)cc(C)c1C#N` [Example 19, 4-(3-cyclopropyl-1-methanesulfonylmethyl-5-methyl-1H-pyrazol-4-yloxy)-2,6-dimethyl-benzonitrile] returned a concentration for half-maximal inhibition (IC50) of 7 nM.

As for `Cc1cc(Oc2c(C3CC3)nn(CS(C)(=O)=O)c2C)ccc1C#N` [Example 17, 4-(3-cyclopropyl-1-methanesulfonylmethyl-5-methyl-1H-pyrazol-4-yloxy)-2-methyl-benzonitrile], the IC50 came to 22 nM.

`Cc1cc(Oc2c(C)nn(CS(C)(=O)=O)c2C2CC2)cc(C)c1C#N` [Example 20, 4-(5-cyclopropyl-1-methanesulfonylmethyl-3-methyl-1H-pyrazol-4-yloxy)-2,6-dimethyl-benzonitrile] yielded an IC50 of 15 nM.

System in another series: not given
Assay: not given
Conditions: not given
Broadly, the melting point is the temperature of the solid-liquid transition. Compound `Cc1cc(Oc2c(C3CC3)nn(CS(C)(=O)=O)c2C2CC2)ccc1C#N` [Example 2, 4-(3,5-dicyclopropyl-1-methanesulfonylmethyl-1H-pyrazol-4-yloxy)-2-methyl-benzonitrile] displayed a melting point of 140.7 to 141.3 °C.

Take `CS(=O)(=O)Cn1nc(C2CC2)c(Oc2ccc(C#N)cc2)c1C1CC1` [Example 1, 4-(3,5-Dicyclopropyl-1-methanesulfonylmethyl-1H-pyrazol-4-yloxy)-benzonitrile]: the melting point fell in the range of 141.5 to 142.5 °C.

For the origin of these results see patent publication US7309712B2, “1H-pyrazoles useful in therapy” (Pfizer Limited, priority 2005, dated 2007).
